The term IC50 denotes the midpoint of a concentration-inhibition curve.

For this experiment, the system named is GM1 production in Jurkat cells. The experiment in a line: cells. The conditions noted are these: Homo sapiens, Jurkat, 72 h. The class given is cell-based.
For the compound `CC1(C)Cc2cc(-c3ccc(OCCN4CCOCC4)cc3)ccc2C1NC(=O)O[C@@H]1CN2CCC1CC2` (stereo partly drawn) [Example 117, (S)-quinuclidin-3-yl (2,2-dimethyl-5-(4-(2-morpholinoethoxy)phenyl)-2,3-dihydro-1H-inden-1-yl)carbamate], the 50% inhibitory concentration (IC50) was 41.8 nM.
`CC1(C)Cc2cc(-c3ccnc(C(F)(F)F)c3)ccc2C1NC(=O)O[C@@H]1CN2CCC1CC2` (stereo partly drawn) [Example 118, (S)-quinuclidin-3-yl (2,2-dimethyl-5-(2-(trifluoromethyl)pyridin-4-yl)-2,3-dihydro-1H-inden-1-yl)carbamate]: the IC50 stood at 38.4 nM.
Turning to `CC1(C)Cc2cc(-c3cc(Cl)ncc3Cl)ccc2C1NC(=O)O[C@@H]1CN2CCC1CC2` (stereo partly drawn) [Example 119, (S)-quinuclidin-3-yl (5-(2,5-dichloropyridin-4-yl)-2,2-dimethyl-2,3-dihydro-1H-inden-1-yl)carbamate], half-maximal inhibition (IC50) was put at 38.3 nM.
On to `CN1CCOc2cc(-c3ccc4c(c3)CC(C)(C)C4NC(=O)O[C@@H]3CN4CCC3CC4)ccc21` (stereo partly drawn) [Example 120, (S)-quinuclidin-3-yl (2,2-dimethyl-5-(4-methyl-3,4-dihydro-2H-benzo[b][1,4]oxazin-7-yl)-2,3-dihydro-1H-inden-1-yl)carbamate], for which the IC50 worked out at 28.4 nM.
With `COc1ccc(Cl)c(-c2ccc3c(c2)CC(C)(C)C3NC(=O)O[C@@H]2CN3CCC2CC3)c1` (stereo partly drawn) [Example 121, (S)-quinuclidin-3-yl (5-(2-chloro-5-methoxyphenyl)-2,2-dimethyl-2,3-dihydro-1H-inden-1-yl)carbamate] the figure was 4.7 nM.
Compound `COc1ccc(-c2ccc3c(c2)CC(C)(C)C3NC(=O)O[C@@H]2CN3CCC2CC3)cc1Cl` (stereo partly drawn) [Example 122, (S)-quinuclidin-3-yl (5-(3-chloro-4-methoxyphenyl)-2,2-dimethyl-2,3-dihydro-1H-inden-1-yl)carbamate] had an IC50 of 50.8 nM.
The same measure for `COc1ccc(-c2ccc3c(c2)CC(C)(C)C3NC(=O)O[C@@H]2CN3CCC2CC3)c(Cl)c1` (stereo partly drawn) [Example 123, (S)-quinuclidin-3-yl (5-(2-chloro-4-methoxyphenyl)-2,2-dimethyl-2,3-dihydro-1H-inden-1-yl)carbamate]: 9.3 nM; for `COc1cccc(-c2ccc3c(c2)CC(C)(C)C3NC(=O)O[C@@H]2CN3CCC2CC3)c1Cl` (stereo partly drawn) [Example 124, (S)-quinuclidin-3-yl (5-(2-chloro-3-methoxyphenyl)-2,2-dimethyl-2,3-dihydro-1H-inden-1-yl)carbamate]: 22.3 nM; for `COc1cc(-c2ccc3c(c2)CC(C)(C)C3NC(=O)O[C@@H]2CN3CCC2CC3)ccc1Cl` (stereo partly drawn) [Example 125, (S)-quinuclidin-3-yl (5-(4-chloro-3-methoxyphenyl)-2,2-dimethyl-2,3-dihydro-1H-inden-1-yl)carbamate]: 9.5 nM.
The compound `COc1ccc(-c2ccc3c(c2)CC(C)(C)C3NC(=O)O[C@@H]2CN3CCC2CC3)c(Cl)c1Cl` (stereo partly drawn) [Example 126, (S)-quinuclidin-3-yl (5-(2,3-dichloro-4-methoxyphenyl)-2,2-dimethyl-2,3-dihydro-1H-inden-1-yl)carbamate] came in with a 50% inhibitory concentration (IC50) of 50.5 nM.
The same measure for `CC(C)Oc1ccc(-c2ccc3c(c2)CC(C)(C)C3NC(=O)O[C@@H]2CN3CCC2CC3)cc1Cl` (stereo partly drawn) [Example 127, (S)-quinuclidin-3-yl (5-(3-chloro-4-isopropoxyphenyl)-2,2-dimethyl-2,3-dihydro-1H-inden-1-yl)carbamate]: 18.2 nM.
With `COc1ccc(-c2ccc3c(c2)CC(C)(C)C3NC(=O)O[C@@H]2CN3CCC2CC3)c(F)c1` (stereo partly drawn) [Example 128, (S)-quinuclidin-3-yl (5-(2-fluoro-4-methoxyphenyl)-2,2-dimethyl-2,3-dihydro-1H-inden-1-yl)carbamate], the half-inhibitory concentration (IC50) was found to be 18.4 nM.
As for `CN(C)c1cc(-c2ccc3c(c2)CC(C)(C)C3NC(=O)O[C@@H]2CN3CCC2CC3)ccc1F` (stereo partly drawn) [Example 129, (S)-quinuclidin-3-yl (5-(3-(dimethylamino)-4-fluorophenyl)-2,2-dimethyl-2,3-dihydro-1H-inden-1-yl)carbamate], half-maximal inhibition (IC50) was put at 36.8 nM.

Values taken from patent publication US12522602B2, “Derivatives having 2,3-dihydro-1H-indene or 2,3-dihydrobenzofuran moiety or pharmaceutically acceptable salt thereof and pharmaceutical compositions comprising the same” (YUHAN CORPORATION, priority 2019, dated 2026).
